Test results: patent publication US7659289B2, “Hydroxyethylene-based β-secretase inhibitors and use thereof” (CoMentis, Inc., priority 2004, dated 2010)
pIC50, pKi: −log10 of the molar value.

Columns and labels:
Aβ production = test: Cellular Aβ IC50 determination (Aβ40 sandwich ELISA); assay type: cell-based; settings: Cricetulus griseus; Aβ40, Chinese hamster ovary cells over-expressing human APP695 with London and Swedish mutations, 24 h incubation
Description: The potency of compounds against memapsin 2 activity was determined in a cellular assay of Aβ production. […] Chinese hamster ovary cells that over-express human APP695 with the London and Swedish mutations were seeded in multi-well plates at 10% confluency. Compounds were dissolved in DMSO to concentrations near 1 mM, and diluted into culture media to a final concentration near 4 μM (final 0.4% DMSO). Compounds were diluted serially and applied to cells in multi-well plates 48 h after seeding. Incubation was continued in 5% CO2 at 37 degrees C. for 24 h. Aliquots were removed and assayed for Aβ40 content using a sandwich ELISA (BioSource International). Amount of Aβ40 over the range of concentration of compounds, relative to control incubations, were fit to a 4-parameter IC50 model.

Cathepsin D = Cathepsin D (Homo sapiens, UniProt P07339); test: Inhibition of cathepsin D activity (MALDI-TOF, substrate peptide […]); assay type: biochemical; settings: pH 4.1, 37 degrees C., read-out: Cath D Ki
memapsin 2 = memapsin 2 (Homo sapiens, UniProt P56817); test: Inhibition of memapsin 2 beta-secretase activity toward fluorogenic substrate FS-2; assay type: biochemical; settings: pH 4, 37° C., 20 minutes pre-incubation, fluorogenic substrate FS-2, tight-binding model; read-out: M2 Ki
Memapsin 1 = target: T1, Memapsin 1 (Homo sapiens, UniProt Q9Y5Z0); test: Inhibition of memapsin 1 beta-secretase activity (MALDI-TOF, substrate peptide […]); assay type: biochemical; settings: pH 4.1, 37 degrees C., read-out: M1 Ki
T1 sequence (Q9Y5Z0 63-473 limits assumed): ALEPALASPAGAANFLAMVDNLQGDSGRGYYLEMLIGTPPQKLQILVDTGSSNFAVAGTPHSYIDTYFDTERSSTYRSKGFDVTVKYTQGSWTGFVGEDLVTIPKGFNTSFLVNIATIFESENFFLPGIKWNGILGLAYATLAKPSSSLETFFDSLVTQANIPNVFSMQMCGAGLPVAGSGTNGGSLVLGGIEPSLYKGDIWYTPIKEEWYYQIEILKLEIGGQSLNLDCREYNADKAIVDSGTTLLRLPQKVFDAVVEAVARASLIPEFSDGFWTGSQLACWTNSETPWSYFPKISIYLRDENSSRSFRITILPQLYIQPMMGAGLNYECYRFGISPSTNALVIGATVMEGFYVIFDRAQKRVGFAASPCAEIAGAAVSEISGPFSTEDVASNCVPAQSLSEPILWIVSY

memapsin 2, sequence (P56817 46-501): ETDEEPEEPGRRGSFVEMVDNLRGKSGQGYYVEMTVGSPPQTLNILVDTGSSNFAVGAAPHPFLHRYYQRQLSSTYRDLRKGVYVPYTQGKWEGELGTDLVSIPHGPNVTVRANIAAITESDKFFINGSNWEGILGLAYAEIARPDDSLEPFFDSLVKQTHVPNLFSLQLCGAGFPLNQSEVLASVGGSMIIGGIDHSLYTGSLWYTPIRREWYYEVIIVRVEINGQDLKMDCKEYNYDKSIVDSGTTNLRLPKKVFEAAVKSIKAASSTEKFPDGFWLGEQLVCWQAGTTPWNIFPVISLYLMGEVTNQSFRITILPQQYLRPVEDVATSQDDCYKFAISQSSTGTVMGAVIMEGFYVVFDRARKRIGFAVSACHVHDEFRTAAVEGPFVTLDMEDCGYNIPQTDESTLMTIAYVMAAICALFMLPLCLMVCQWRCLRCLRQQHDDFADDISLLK
Cathepsin D, sequence (P07339 65-412, species assumed): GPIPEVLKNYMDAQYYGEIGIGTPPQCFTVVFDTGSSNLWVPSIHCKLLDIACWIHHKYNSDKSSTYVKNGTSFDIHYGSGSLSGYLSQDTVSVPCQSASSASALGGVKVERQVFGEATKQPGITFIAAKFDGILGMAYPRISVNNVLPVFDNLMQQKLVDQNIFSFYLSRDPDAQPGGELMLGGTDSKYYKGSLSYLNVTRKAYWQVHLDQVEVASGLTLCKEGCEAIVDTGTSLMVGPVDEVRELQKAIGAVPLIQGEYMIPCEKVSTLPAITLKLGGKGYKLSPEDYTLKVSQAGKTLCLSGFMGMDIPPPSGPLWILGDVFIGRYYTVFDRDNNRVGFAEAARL

| SMILES | pIC50 (Aβ production) | pKi (Cathepsin D) | pKi (memapsin 2) | pKi (Memapsin 1) |
| --- | --- | --- | --- | --- |
| Cc1csc(COC(=O)N[C@@H](CNS(C)(=O)=O)C(=O)N[C@@H](CC(C)C)[C@@H](O)C[C@@H](C)C(=O)N[C@H](C(=O)NCC(C)C)C(C)C)n1 | < 4.00 | 6.22 to 7.00 | > 7.00 | 6.22 to 7.00 |
| COC(=O)NC[C@H](NC(=O)OCc1nc(C)cs1)C(=O)N[C@@H](CC(C)C)[C@@H](O)C[C@@H](C)C(=O)N[C@H](C(=O)NCC(C)C)C(C)C | > 5.22 | > 7.00 | > 7.00 | > 7.00 |
| Cc1csc(COC(=O)N[C@@H](CNC(=O)O[C@H]2CCOC2)C(=O)N[C@@H](CC(C)C)[C@@H](O)C[C@@H](C)C(=O)N[C@H](C(=O)NCC(C)C)C(C)C)n1 | 4.00 to 5.22 | 6.22 to 7.00 | 6.22 to 7.00 | 6.22 to 7.00 |
| COC(Cn1nc(C)cc1C)C(=O)N[C@@H](CNC(=O)OC(C)(C)C)C(=O)N[C@@H](CC(C)C)[C@@H](O)C[C@@H](C)C(=O)N[C@H](C(=O)NCC(C)C)C(C)C (stereo partly drawn) [tert-butyl (2S)-2-(3-(3,5-dimethyl-1H-pyrazol-1-yl)-2-methoxypropanamido)-3-((4S,5S,7R)-5-hydroxy-8-((S)-1-(isobutylamino)-3-methyl-1-oxobutan-2-ylamino)-2,7-dimethyl-8-oxooctan-4-ylamino)-3-oxopropylcarbamate] | < 4.00 | > 7.00 | 6.22 to 7.00 |  |
| Cc1csc(CNC(=O)C[C@@H](NC(=O)OC(C)(C)C)C(=O)N[C@@H](CC(C)C)[C@@H](O)C[C@@H](C)C(=O)N[C@H](C(=O)NCC(C)C)C(C)C)n1 [tert-butyl (5R,8S,9S,11 R,14S)-9-hydroxy-8-isobutyl-14-isopropyl-11,18-dimethyl-1-(4-methylthiazol-2-yl)-3,6,12,15-tetraoxo-2,7,13,16-tetraazanonadecan-5-ylcarbamate] |  |  | > 7.00 | 6.22 to 7.00 |
| Cc1csc(CNC(=O)C[C@H](NC(=O)OC(C)(C)C)C(=O)N[C@@H](CC(C)C)[C@@H](O)C[C@@H](C)C(=O)N[C@H](C(=O)NCC(C)C)C(C)C)n1 [tert-butyl (5S,8S,9S,11R,14S)-9-hydroxy-8-isobutyl-14-isopropyl-11,18-dimethyl-1-(4-methylthiazol-2-yl)-3,6,12,15-tetraoxo-2,7,13,16-tetraazanonadecan-5-ylcarbamate] |  |  | 6.22 to 7.00 | < 6.22 |
| CC[C@@H](Cn1nc(C)cc1C)C(=O)N[C@@H](CNC(=O)OC(C)(C)C)C(=O)N[C@@H](CC(C)C)[C@@H](O)C[C@@H](C)C(=O)N[C@H](C(=O)NCC(F)(F)F)C(C)C [tert-butyl (S)-2-((S)-2-((3,5-dimethyl-1H-pyrazol-1-yl)methyl)butanamido)-3-((4S,5S,7R)-5-hydroxy-2,7-dimethyl-8-((S)-3-methyl-1-oxo-1-(2,2,2-trifluoroethylamino)butan-2-ylamino)-8-oxooctan-4-ylamino)-3-oxopropylcarbamate] | 4.00 to 5.22 | > 7.00 | > 7.00 |  |
| CC[C@@H](Cn1nc(C)cc1C)C(=O)N[C@@H](CNC(=O)OC(C)(C)C)C(=O)N[C@@H](CC(C)C)[C@@H](O)C[C@@H](C)C(=O)N[C@H](C(=O)NCC(C)C)C(C)C [tert-butyl (S)-2-((S)-2-((3,5-dimethyl-1H-pyrazol-1-yl)methyl)butanamido)-3-((4S,5S,7R)-5-hydroxy-8-((S)-1-(isobutylamino)-3-methyl-1-oxobutan-2-ylamino)-2,7-dimethyl-8-oxooctan-4-ylamino)-3-oxopropylcarbamate] | > 5.22 | > 7.00 | > 7.00 |  |
| Cc1nc(C[C@H](C)C(=O)N[C@@H](CNC(=O)OC(C)(C)C)C(=O)N[C@@H](CC(C)C)[C@@H](O)C[C@@H](C)C(=O)N[C@H](C(=O)NCC(C)C)C(C)C)c(C)o1 [tert-butyl (S)-2-((S)-3-(2,5-dimethyloxazol-4-yl)-2-methylpropanamido)-3-((4S,5S,7R)-5-hydroxy-8-((S)-1-(isobutylamino)-3-methyl-1-oxobutan-2-ylamino)-2,7-dimethyl-8-oxooctan-4-ylamino)-3-oxopropylcarbamate] | > 5.22 | > 7.00 | > 7.00 |  |
| Cc1csc(C[C@H](C)C(=O)N[C@@H](CNC(=O)OC(C)(C)C)C(=O)N[C@@H](CC(C)C)[C@@H](O)C[C@@H](C)C(=O)N[C@H](C(=O)NCc2ccncc2)C(C)C)n1 [tert-butyl (S)-3-(4S,5S,7R)-hydromxy-2,7-dimethyl-8-((S)-3-methyl-1-oxo-1-(pyridin-4-ylmethylamino)butan-2-ylamino)-8-oxooctan-4-ylamino)-2-((S)-2-methyl-3-(4-methylthiazol-2-yl)propanamido)-3-oxopropylcarbamate] | > 5.22 | 6.22 to 7.00 | > 7.00 |  |
| Cc1csc(C[C@H](C)C(=O)N[C@@H](CNC(=O)OC(C)(C)C)C(=O)N[C@@H](Cc2ccccc2)[C@@H](O)C[C@@H](C)C(=O)N[C@H](C(=O)NCC(C)C)C(C)C)n1 [tert-butyl (S)-3-((2S,3S,5 R)-3-hydroxy-6-((S)-1-(isobutylamino)-3-methyl-1-oxobutan-2-ylamino)-5-methyl-6-oxo-1-phenylhexan-2-ylamino)-2-((S)-2-methyl-3-(4-methylthiazol-2-yl)propanamido)-3-oxopropylcarbamate] | 4.00 to 5.22 | > 7.00 | > 7.00 |  |

More lines, now with the values ahead:

| pIC50 (Aβ production) | pKi (Cathepsin D) | pKi (memapsin 2) | pKi (Memapsin 1) | SMILES |
| --- | --- | --- | --- | --- |
| < 4.00 | 6.22 to 7.00 | 6.22 to 7.00 | 6.22 to 7.00 | Cc1csc(COC(=O)N[C@@H](CNC(=O)OC(C)(C)C)C(=O)N[C@@H](CC(C)C)[C@@H](O)C[C@@H](C)C(=O)N[C@H](C(=O)NCC(C)C)C(C)C)n1 |
| > 5.22 | > 7.00 | > 7.00 |  | CC[C@H](C[C@H](O)[C@H](CC(C)C)NC(=O)[C@H](CNC(=O)OC(C)(C)C)NC(=O)[C@@H](C)Cc1nc(C)cs1)C(=O)N[C@H](C(=O)NCC(C)C)C(C)C [tert-butyl (S)-3-((4S,5S,7R)-5-hydroxy-7-((S)-1-(isobutylamino)-3-methyl-1-oxobutan-2-ylcarbamoyl)-2-methylnonan-4-ylamino)-2-((S)-2-methyl-3-(4-methylthiazol-2-yl)propanamido)-3-oxopropylcarbamate] |
| > 5.22 | > 7.00 | > 7.00 |  | CC[C@@H](Cc1nc(C)cs1)C(=O)N[C@@H](CNC(=O)OC(C)(C)C)C(=O)N[C@@H](CC(C)C)[C@@H](O)C[C@@H](C)C(=O)N[C@H](C(=O)NCC(C)C)C(C)C [tert-butyl (S)-3-((4S,5S,7R)-5-hydroxy-8-((S)-1-(isobutylamino)-3-methyl-1-oxobutan-2-ylamino)-2,7-dimethyl-8-oxooctan-4-ylamino)-2-((S)-2-((4-methylthiazol-2-yl)methyl)butanamido)-3-oxopropylcarbamate] |
| > 5.22 | > 7.00 | > 7.00 | 6.22 to 7.00 | Cc1csc(C[C@H](C)C(=O)N[C@@H](CNC(=O)OC(C)(C)C)C(=O)N[C@@H](CC(C)C)[C@@H](O)C[C@@H](C)C(=O)N[C@H](C(=O)NCC(C)C)C(C)C)n1 [tert-butyl (S)-3-((4S,5S,7R)-5-hydroxy-8-((S)-1-(isobutylamino)-3-methyl-1-oxobutan-2-ylamino)-2,7-dimethyl-8-oxooctan-4-ylamino)-2-((S)-2-methyl-3-(4-methylthiazol-2-yl)propanamido)-3-oxopropylcarbamate] |
| > 5.22 | 6.22 to 7.00 | > 7.00 |  | Cc1csc(C[C@H](C)C(=O)N[C@@H](CNC(=O)OC(C)(C)C)C(=O)N[C@@H](CC(C)C)[C@@H](O)C[C@@H](C)C(=O)N[C@H](C(=O)NN(C)C)C(C)C)n1 [tert-butyl (S)-3-((4S,5S,7R)-8-((S)-1-(2,2-dimethylhydrazinyl)-3-methyl-1-oxobutan-2-ylamino)-5-hydroxy-2,7-dimethyl-8-oxooctan-4-ylamino)-2-((S)-2-methyl-3-(4-methylthiazol-2-yl)propanamido)-3-oxopropylcarbamate] |
